Test system: SCCA 1 (Serpin b3) expression
Assay: Effect of suppressing SCCA 1 expression (RT-PCR in human normal keratinocytes)
Type: cell-based
Settings: incubated 24 hours, G3PDH internal standard, compared with control sample
Description: Human normal keratinocytes (manufactured by KURABO INDUSTRIES LTD.) were incubated with culture medium, Epilife (manufactured by KURABO INDUSTRIES LTD.) For medium replacement, the medium was subcultured for three times a week. The human normal keratinocytes were seeded on 3.5 cm dishes. In the phase of 60 to 70% confluent, 200 μM and 1 mM of N-benzenesulfonyl-gamma-aminobutyric were respectively added to the dishes, which were incubated for 24 hours. Then RNAs were extracted with use of Isogen, and SCCA 1 (Serpin b3) expression levels were measured by RT-PCR. Additionally, as a control sample, the same test except no addition of gamma-aminobutyric acid derivatives was conducted. G3PDH was used as internal standard. The primers used for PCR were as follows.

For `O=C(O)CCCNS(=O)(=O)c1ccccc1` [N-benzenesulfonyl-gamma-aminobutyric acid], which “Serpin b3 (SCCA 1) expression level” value (200 μM added) is on record?
Its value is “significantly decreased”.

What about the “Serpin b3 (SCCA 1) expression level” value (1 mM added) of the same compound?
The value was “significantly decreased”.

From patent US8173705B2, “Agent for alleviating wrinkles” (Shiseido Company Ltd., priority 2007, dated 2012)
